Reference: patent publication US5439885A, “CRF analogs” (The Salk Institute for Biological Studies, priority 1993, dated 1995)
“Also recorded” adds a separate entry of the source. Like-named read-outs stand apart in the source and are kept apart here. Where a SMILES comes first, the peptide text is derived from it. Where no end group is shown, it is not given here. [ ]: non-standard residue; d: D form. Nle = CCCC[C@H](N)C(=O)O

How the values were obtained:
[1] = lowering of blood pressure when injected peripherally; type: in vivo, mammals; settings: e.g. intravenously
[2] = biopotency of CRF analog (test not specified)
[3] = system: secretion of ACTH and β-END-LI; test: inhibition of the secretion of ACTH and β-END-LI by CRF antagonists; type: in vivo; settings: injected peripherally
rats = settings: administered into the ventricles; cited from earlier work
[4] = CRF in the brain; cited from earlier work
[5] = system: secretion of ACTH and β-END-LI; test: in vivo stimulation of the secretion of ACTH and β-END-LI
Description: (§1) The synthetic CRF agonist peptides [Ala^20 ]-oCRF and [Ala^39 ]-oCRF are examined for their effects on the secretion of ACTH and β-endorphin in vitro and also in vivo. The potency of synthetic oCRF analogs to stimulate the secretion of ACTH and β-endorphin by cultured rat pituitary cells is measured using the procedure as generally set forth in Endocrinology, 91, 562 (1972) and compared against synthetic oCRF. [Ala^20 ]-oCRF is considered to be about 2 to 4 times as potent as the native hormone. […] In vivo testing which can be carried out using the general procedure set forth in C.

[6] = system: cultured rat pituitary cells; type: cell-based
Description: as §1

[7] = system: cultured rat pituitary cells; settings: background statement; cited from earlier work
[8] = system: secretion of ACTH and β-END-LI; settings: background statement; cited from earlier work
[9] = background statement; cited from earlier work

Molecule	biopotency [2]	stimulation of ACTH and β-endorphin-like activities (β-END-LI) in vitro [7]	stimulation of ACTH and β-endorphin-like activities (β-END-LI) in vivo [8]	lowering of blood pressure [9]	further results
CC[C@H](C)[C@H](NC(=O)[C@@H](NC(=O)[C@H](CCC(=O)O)NC(=O)[C@H](CCSC)NC(=O)[C@H](CC(C)C)NC(=O)[C@H](CCCCN)NC(=O)[C@H](CCCNC(=N)N)NC(=O)[C@H](CC(N)=O)NC(=O)[C@H](CO)NC(=O)[C@H](Cc1c[nH]cn1)NC(=O)[C@H](C)NC(=O)[C@H](CCC(N)=O)NC(=O)[C@H](CCC(N)=O)NC(=O)[C@H](C)NC(=O)[C@H](CC(C)C)NC(=O)[C@H](CCC(N)=O)NC(=O)[C@H](CCC(=O)O)NC(=O)[C@H](C)NC(=O)[C@H](CCCNC(=N)N)NC(=O)[C@H](C)NC(=O)[C@H](CCSC)NC(=O)[C@H](C)NC(=O)[C@H](CC(C)C)NC(=O)[C@@H](NC(=O)[C@H](CCC(=O)O)NC(=O)[C@H](CCCNC(=N)N)NC(=O)[C@H](CC(C)C)NC(=O)[C@H](CC(C)C)NC(=O)[C@H](Cc1c[nH]cn1)NC(=O)[C@@H](Cc1ccccc1)NC(=O)[C@@H](NC(=O)[C@H](CC(C)C)NC(=O)[C@H](CC(=O)O)NC(=O)[C@H](CC(C)C)NC(=O)[C@H](CO)NC(=O)[C@@H](NC(=O)[C@@H]1CCCN1C(=O)[C@@H]1CCCN1C(=O)[C@@H](N)CCC(=O)O)[C@@H](C)CC)[C@@H](C)O)C(C)C)[C@@H](C)CC)C(N)=O [IV] (H-EPPISLDLT[dF]HLLREVLAMARAEQLAQQAHSNRKLMEII-NH2)	biopotent				lowering of blood pressure [1]: significant lowering of blood pressure
CCCC[C@H](NC(=O)[C@H](C)NC(=O)[C@H](CC(C)C)NC(=O)[C@@H](NC(=O)[C@H](CCC(=O)O)NC(=O)[C@H](CCCNC(=N)N)NC(=O)[C@H](CC(C)C)NC(=O)[C@H](CC(C)C)NC(=O)[C@H](Cc1c[nH]cn1)NC(=O)[C@H](N)Cc1ccccc1)C(C)C)C(=O)N[C@@H](C)C(=O)N[C@@H](CCCNC(=N)N)C(=O)N[C@@H](C)C(=O)N[C@@H](CCC(=O)O)C(=O)N[C@@H](CCC(N)=O)C(=O)N[C@@H](CC(C)C)C(=O)N[C@@H](C)C(=O)N[C@@H](CCC(N)=O)C(=O)N[C@@H](CCC(N)=O)C(=O)N[C@@H](C)C(=O)N[C@@H](Cc1c[nH]cn1)C(=O)N[C@@H](CO)C(=O)N[C@@H](CC(N)=O)C(=O)N[C@@H](CCCNC(=N)N)C(=O)N[C@@H](CCCNC(=N)N)C(=O)N[C@@H](CC(C)C)C(=O)N[C@@H](CCCC)C(=O)N[C@@H](C)C(=O)N[C@H](C(=O)N[C@H](C(N)=O)[C@@H](C)CC)[C@@H](C)CC [IX] (H-[dF]HLLREVLA[Nle]ARAEQLAQQAHSNRRL[Nle]AII-NH2)	biopotent				inhibition of the secretion of ACTH and β-END-LI [3]: inhibits the secretion of ACTH and β-END-LI
CRF: physiologic corticotropin releasing factor, a hentetracontapeptide; species form not specified at the place (SEEPPISLDLTFHLLREVLEMARAEQLAQQAHSNRKLMEII-NH2; ends and bridges not checked; UniProt P06850 154-194, looked up)					activity (rats): increases activity; learning performance (rats): improves learning performance; respiratory rate [4]: appears to increase respiratory rate
SEEPPISLDLT[dF]HLLREVLA[Nle]ARAEQLAQQAHSNRRL[Nle]AII-NH2 [VIA]	biopotent				stimulation of the secretion of ACTH and β-END-LI [5]: stimulates the secretion of ACTH and β-END-LI; lowering of blood pressure [1]: significant lowering of blood pressure
SQEPPISLDLTFHLLREVLAMTKADQLAQQAHSNRKLLDIA-NH2 [Example I]					potency to stimulate the secretion of ACTH and β-endorphin, times as potent as the native hormone [6]: 2-4 times
SQEPPISLDLTFHLLREVLEMTKADQLAQQAHSNRKLLAIA-NH2 [II]					increase in biopotency in vitro over the native hormone [6]: ~85%
Ser-Gln-Glu-Pro-Pro-Ile-Ser-Leu-Asp-Leu-Thr-Phe-His-Leu-Leu-Arg-Glu-Val-Leu-Glu-Met-Thr-Lys-Ala-Asp-Gln-Leu-Ala-Gln-Gln-Ala-His-Ser-Asn-Arg-Lys-Leu-Leu-Asp-Ile-Ala (SQEPPISLDLTFHLLREVLEMTKADQLAQQAHSNRKLLDIA) [oCRF]		stimulate ACTH and β-endorphin-like activities	stimulates the secretion of ACTH and β-endorphin; also recorded: stimulate ACTH and β-endorphin-like activities	lowers blood pressure; also recorded: substantially lower blood pressure	
Ser-Gln-Glu-Pro-Pro-Ile-Ser-Leu-Asp-Leu-Thr-phe-His-Leu-Leu-Arg-Glu-Met-Leu-Glu-Met-Ala-Lys-Ala-Glu-Gln-Glu-Ala-Glu-Gln-Ala-Ala-Leu-Asn-Arg-Leu-Leu-Leu-Glu-Glu-Ala (SQEPPISLDLTFHLLREMLEMAKAEQEAEQAALNRLLLEEA) [AHC]		stimulate ACTH and β-endorphin-like activities	stimulate ACTH and β-endorphin-like activities	substantially lower blood pressure	
Ser-Glu-Glu-Pro-Pro-Ile-Ser-Leu-Asp-Leu-Thr-phe-His-Leu-Leu-Arg-Glu-Val-Leu-Glu-Met-Ala-Arg-Ala-Glu-Gln-Leu-Ala-Gln-Gln-Ala-His-Ser-Asn-Arg-Lys-Leu-Met-Glu-Ile-Ile (SEEPPISLDLTFHLLREVLEMARAEQLAQQAHSNRKLMEII) [rCRF]		stimulate ACTH and β-endorphin-like activities	stimulate ACTH and β-endorphin-like activities	substantially lower blood pressure	
